We go through 20 compounds from patent US10039753B2, “Imidazo[4,5-c]quinoline and imidazo[4,5-c][1,5]naphthyridine derivatives as LRRK2 inhibitors” (Pfizer Inc., priority 2015, dated 2018).

Experiment [1] addresses T1, GST-tagged truncated LRRK2 (Homo sapiens, UniProt Q5S007).
T1 construct: GST-tagged truncated LRRK2 from Invitrogen (Cat # PV4874); GST; purchased Invitrogen PV4874
The experiment can be described thus: LRRK2 Assay, Format 2 (Lantha Screen), WT. It counts as biochemical. As to conditions: geometric mean of 2-4 determinations unless otherwise indicated (a: >=5; b: single determination).

For experiment [2], the target named is mutant G2019S LRRK2 (Homo sapiens, UniProt Q5S007, G2019S). The experiment can be described thus: LRRK2 Assay, Format 2 (Lantha Screen), G2019S mutant. The format is biochemical. Conditions: geometric mean of 2-4 determinations unless otherwise indicated (a: >=5; b: single determination); read-out: LRRK2, Format 2 G2019S IC50. Details: purchased Invitrogen PV4881.
Chain of mutant G2019S LRRK2 (Q5S007 970-2527 G2019S limits assumed): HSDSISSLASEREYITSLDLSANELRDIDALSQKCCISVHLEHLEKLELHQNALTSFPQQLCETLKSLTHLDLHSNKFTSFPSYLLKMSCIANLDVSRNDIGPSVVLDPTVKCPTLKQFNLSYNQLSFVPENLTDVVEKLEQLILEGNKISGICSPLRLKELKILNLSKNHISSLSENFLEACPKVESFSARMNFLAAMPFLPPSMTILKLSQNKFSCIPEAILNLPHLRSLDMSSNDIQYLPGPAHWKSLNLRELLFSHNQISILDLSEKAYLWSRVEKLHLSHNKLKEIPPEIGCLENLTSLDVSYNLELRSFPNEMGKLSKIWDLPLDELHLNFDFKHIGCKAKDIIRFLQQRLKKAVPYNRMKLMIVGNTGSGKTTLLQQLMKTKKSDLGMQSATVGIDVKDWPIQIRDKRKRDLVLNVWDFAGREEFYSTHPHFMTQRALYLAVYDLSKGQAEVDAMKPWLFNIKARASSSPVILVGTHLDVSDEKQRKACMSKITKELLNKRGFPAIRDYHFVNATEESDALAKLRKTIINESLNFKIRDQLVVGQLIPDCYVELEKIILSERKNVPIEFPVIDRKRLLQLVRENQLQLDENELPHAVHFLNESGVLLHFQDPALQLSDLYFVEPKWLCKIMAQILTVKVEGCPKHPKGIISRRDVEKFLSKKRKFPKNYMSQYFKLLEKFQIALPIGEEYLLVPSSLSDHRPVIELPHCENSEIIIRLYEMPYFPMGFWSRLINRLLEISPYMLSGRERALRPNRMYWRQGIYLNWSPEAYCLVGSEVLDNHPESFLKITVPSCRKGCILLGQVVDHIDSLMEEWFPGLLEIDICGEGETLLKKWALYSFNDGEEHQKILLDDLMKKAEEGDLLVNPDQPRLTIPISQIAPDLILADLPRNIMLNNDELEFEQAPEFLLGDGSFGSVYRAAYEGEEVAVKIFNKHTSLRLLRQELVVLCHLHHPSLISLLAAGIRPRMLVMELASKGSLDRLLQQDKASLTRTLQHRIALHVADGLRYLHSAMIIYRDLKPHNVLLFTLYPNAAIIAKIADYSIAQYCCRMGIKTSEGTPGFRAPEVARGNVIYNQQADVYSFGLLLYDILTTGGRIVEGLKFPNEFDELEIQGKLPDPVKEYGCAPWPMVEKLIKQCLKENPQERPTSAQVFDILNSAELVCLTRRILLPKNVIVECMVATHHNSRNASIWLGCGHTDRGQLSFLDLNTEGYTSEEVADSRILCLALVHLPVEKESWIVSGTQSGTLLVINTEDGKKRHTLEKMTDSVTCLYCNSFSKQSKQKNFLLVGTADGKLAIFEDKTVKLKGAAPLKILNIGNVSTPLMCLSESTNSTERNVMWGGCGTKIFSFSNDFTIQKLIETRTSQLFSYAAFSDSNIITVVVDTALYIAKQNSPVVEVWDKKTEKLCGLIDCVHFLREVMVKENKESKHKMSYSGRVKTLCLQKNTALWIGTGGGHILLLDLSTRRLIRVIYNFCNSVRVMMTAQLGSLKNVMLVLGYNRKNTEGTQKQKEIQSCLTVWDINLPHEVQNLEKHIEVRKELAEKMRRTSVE

Where a name gives a salt, the structure may show the parent alone.

T1 sequence (Q5S007 970-2527 limits assumed): as the sequence (Q5S007 970-2527 G2019S limits assumed) above, with S1050G counted along it

With `Cc1cnn(Cc2nc3cnc4ccc(Cl)cc4c3n2[C@@H]2CCO[C@H](C)C2)c1` [Example 212, 8-chloro-2-[(4-methyl-1H-pyrazol-1-yl)methyl]-1-[(2R,4R)-2-methyltetrahydro-2H-pyran-4-yl]-1H-imidazo[4,5-c]quinoline], the figures for the IC50 in experiment [1] and in experiment [2] were 8.47 nM and 8.15 nM, respectively.

With `Cc1cc(Cc2nc3cnc4ccc(C#N)cc4c3n2[C@@H]2CCN(C)C2)no1` [Example 213, 2-[(5-methyl-1,2-oxazol-3-yl)methyl]-1-[(3R)-1-methylpyrrolidin-3-yl]-1H-imidazo[4,5-c]quinoline-8-carbonitrile, formate salt], the values for the IC50 in experiment [1] and in experiment [2] were 3.38 nM and 7.03 nM, respectively.

For `C[C@@H]1C[C@H](n2c(C(F)(F)c3ccccn3)nc3cnc4ccc(Cl)cc4c32)CCO1` [Example 214, 8-chloro-2-[difluoro(pyridin-2-yl)methyl]-1-[(2R,4R)-2-methyltetrahydro-2H-pyran-4-yl]-1H-imidazo[4,5-c]quinoline, formate salt], the results for the IC50 in experiment [1] and in experiment [2] were 7.67 nM and 9.67 nM, respectively.

For `Cc1cc(Cc2nc3cnc4ccc(C#N)cc4c3n2C2CCC2)no1` [Example 216, 1-cyclobutyl-2-[(5-methyl-1,2-oxazol-3-yl)methyl]-1H-imidazo[4,5-c]quinoline-8-carbonitrile, formate salt], the concentration for half-maximal inhibition (IC50) (as a rule, the concentration that gives 50% inhibition) in experiment [1] was 26.6 nM; in experiment [2], 38.6 nM.

For the compound `Cc1cc(Cc2nc3cnc4ccc(C#N)cc4c3n2C2CCN(C)C2)no1` (stereo not shown) [Example 217, 2-[(5-methyl-1,2-oxazol-3-yl)methyl]-1-(1-methylpyrrolidin-3-yl)-1H-imidazo[4,5-c]quinoline-8-carbonitrile, formate salt], the results for the IC50 in experiment [1] and in experiment [2] were 5.43 nM and 11.1 nM, respectively.

For the compound `Cc1cc(Cc2nc3cnc4ccc(C#N)cc4c3n2[C@H]2CCN(C)C2)no1` [Example 218, 2-[(5-methyl-1,2-oxazol-3-yl)methyl]-1-[(3S)-1-methylpyrrolidin-3-yl]-1H-imidazo[4,5-c]quinoline-8-carbonitrile, formate salt], the IC50 in experiment [1] turned out to be 21.4 nM; in experiment [2], 32.2 nM.

Regarding `CO[C@H]1CC[C@H](n2c(Cc3cc(C)on3)nc3cnc4ccc(C#N)cc4c32)CC1` [Example 219, 1-(trans-4-methoxycyclohexyl)-2-[(5-methyl-1,2-oxazol-3-yl)methyl]-1H-imidazo[4,5-c]quinoline-8-carbonitrile, formate salt], the IC50 in experiment [1] worked out at 246 nM; in experiment [2] it was 126 nM.

In the case of `C[C@@H]1C[C@H](n2c(C(F)c3csnn3)nc3cnc4ccc(Cl)cc4c32)CCO1` (stereo partly drawn) [Example 220, 8-chloro-2-[fluoro(1,2,3-thiadiazol-4-yl)methyl]-1-[(2R,4R)-2-methyltetrahydro-2H-pyran-4-yl]-1H-imidazo[4,5-c]quinoline, formate salt], the results for the IC50 in experiment [1] and in experiment [2] were 4.81 nM and 5.03 nM, respectively.

As to `Cc1cc(Cc2nc3cnc4ccc(Cl)cc4c3n2[C@@H]2CCO[C@H](CF)C2)no1` [Example 221, 8-chloro-1-[(2S,4R)-2-(fluoromethyl)tetrahydro-2H-pyran-4-yl]-2-[(5-methyl-1,2-oxazol-3-yl)methyl]-1H-imidazo[4,5-c]quinoline], the 50% inhibitory concentration (IC50) in experiment [1] was 3.19 nM; in experiment [2], 2.89 nM.

On to `C[C@@H]1C[C@H](n2c(Cc3ccncn3)nc3cnc4ccc(C#N)cc4c32)CCO1` [Example 222, 1-[(2R,4R)-2-methyltetrahydro-2H-pyran-4-yl]-2-(pyrimidin-4-ylmethyl)-1H-imidazo[4,5-c]quinoline-8-carbonitrile], for which the IC50 in experiment [1] stood at 9.08 nM; in experiment [2], 8.59 nM.

In the case of `C[C@@H]1C[C@H](n2c(Cc3ccccn3)nc3cnc4ccc(C#N)cc4c32)CCO1` [Example 223, 1-[(2R,4R)-2-methyltetrahydro-2H-pyran-4-yl]-2-(pyridin-2-ylmethyl)-1H-imidazo[4,5-c]quinoline-8-carbonitrile], the IC50 in experiment [1] was 9.69 nM; in experiment [2], 9.45 nM.

On to `CC(F)(F)Cn1c(Cc2cscn2)nc2cnc3ccc(C#N)cc3c21` [Example 224, 1-(2,2-difluoropropyl)-2-(1,3-thiazol-4-ylmethyl)-1H-imidazo[4,5-c]quinoline-8-carbonitrile], for which the IC50 in experiment [1] worked out at 9.15 nM; in experiment [2], 11.1 nM.

On to `CC(F)(F)Cn1c(Cn2ccc(C3CC3)n2)nc2cnc3ccc(C#N)cc3c21` [Example 225, 2-[(3-cyclopropyl-1H-pyrazol-1-yl)methyl]-1-(2,2-difluoropropyl)-1H-imidazo[4,5-c]quinoline-8-carbonitrile], for which the IC50 in experiment [1] came to 7.23 nM; in experiment [2], 8.7 nM.

Turning to `Cc1nn2cc(Cc3nc4cnc5ccc(C#N)cc5c4n3CC(C)(F)F)nc2s1` [Example 226, 1-(2,2-difluoropropyl)-2-[(2-methylimidazo[2,1-b][1,3,4]thiadiazol-6-yl)methyl]-1H-imidazo[4,5-c]quinoline-8-carbonitrile], the IC50 is 4.54 nM in experiment [1] and 5.82 nM in experiment [2].

With `CC(F)(F)Cn1c(Cn2cc(C(F)(F)F)cn2)nc2cnc3ccc(C#N)cc3c21` [Example 227, 1-(2,2-difluoropropyl)-2-{[4-(trifluoromethyl)-1H-pyrazol-1-yl]methyl}-1H-imidazo[4,5-c]quinoline-8-carbonitrile], the values for the IC50 in experiment [1] and in experiment [2] were 9.06 nM and 10.8 nM, respectively.

For `Cc1cc(Cc2nc3cnc4ccc(C#N)cc4c3n2CC(F)F)no1` [Example 228, 1-(2,2-difluoroethyl)-2-[(5-methyl-1,2-oxazol-3-yl)methyl]-1H-imidazo[4,5-c]quinoline-8-carbonitrile], the half-maximal inhibitory concentration (IC50) in experiment [1] was 46.7 nM; in experiment [2], 69.4 nM.

Turning to `C[C@@H]1C[C@H](n2c(Cc3cnco3)nc3cnc4ccc(C#N)cc4c32)CCO1` [Example 229, 1-[(2R,4R)-2-methyltetrahydro-2H-pyran-4-yl]-2-(1,3-oxazol-5-ylmethyl)-1H-imidazo[4,5-c]quinoline-8-carbonitrile, formate salt], the IC50 came out at 9.71 nM in experiment [1] and 9.37 nM in experiment [2].

Consider `Cc1nc(Cc2nc3cnc4ccc(C#N)cc4c3n2[C@@H]2CCO[C@H](C)C2)c(C)o1` [Example 230, 2-[(2,5-dimethyl-1,3-oxazol-4-yl)methyl]-1-[(2R,4R)-2-methyltetrahydro-2H-pyran-4-yl]-1H-imidazo[4,5-c]quinoline-8-carbonitrile, formate salt], for which the IC50 is 11.6 nM in experiment [1] and 8.48 nM in experiment [2].

As for `C[C@@H]1C[C@H](n2c(Cc3cncs3)nc3cnc4ccc(C#N)cc4c32)CCO1` [Example 231, 1-[(2R,4R)-2-methyltetrahydro-2H-pyran-4-yl]-2-(1,3-thiazol-5-ylmethyl)-1H-imidazo[4,5-c]quinoline-8-carbonitrile, formate salt], the half-maximal inhibitory concentration (IC50) in experiment [1] came out at 24.9 nM; in experiment [2] it was 26.6 nM.

Turning to `Cc1ccc(Cc2nc3cnc4ccc(C#N)cc4c3n2[C@@H]2CCO[C@H](C)C2)nc1` [Example 232, 2-[(5-methylpyridin-2-yl)methyl]-1-[(2R,4R)-2-methyltetrahydro-2H-pyran-4-yl]-1H-imidazo[4,5-c]quinoline-8-carbonitrile], the IC50 turned out to be 8.48 nM in experiment [1] and 7.26 nM in experiment [2].
